In patent publication EP0579804B1, “BIOLOGICAL ARTIFICIAL LIVER” (MONSANTO COMPANY, priority 1992, dated 1993):

Test system: Hepatocytes
Assay: extracorporeal hepatic metabolism in the hepatocyte bioreactor attached to an ahepatic pig
Assay type: in vitro ADME, outbred Yorkshire/white pig
Conditions: administered into the ultrafiltrate at the inlet of the bioreactor; metabolites 7-OH-coumarin and monoethylglycinexylidide (MEGX) measured at the outlets of the bioreactors
Experimental: The medium used was the hormone-supplemented Waymouth medium as described in Example 1. To accommodate 2 to 5 billion cells, the bioreactor was scaled up to two containment vessels, each with an internal diameter of 40 mm and a height of 100 mm. Glass beads of approx. 2 mm diameter and a total volume of 250 ml per containment vessel were used. Medium was perfused at a recycle rate of 360 ml/min.. […] The bioreactor was attached to an ahepatic pig (liver removed by surgery to mimic total hepatic failure) at approx. 2 hrs. after hepatocyte inoculation. Blood from the left femoral artery was directed into a Minntech hemoconcentrator. A 12 fringe elecath canula was inserted into the femoral artery and connected to a 1/4" PVC tubing to the hemoconcentrator. The hemoconcentrator separated the blood into a cell free ultrafiltrate fraction, and a blood cell fraction. The blood cell fraction was returned to the femoral vein via a similar tubing. The ultrafiltrate exited the hemoconcentrator via a 1/4" PVC tubing and entered the hepatocyte bioreactor system with the flow rate adjusted to 40 ml/min. using a roller pump. […] The respective metabolites, 7-OH-coumarin and monoethylglycinexylidide (MEGX), were measured at the outlets of the bioreactors before the ultrafiltrate was returned to the animal.

## CCOc1ccc2ccc(=O)oc2c1 [7-ethoxycoumarin]
  metabolism: Significant metabolism
